Measurements taken from patent US20260315567A1, “POLYMERIC LEUPROLIDE ACETATE FORMULATIONS” (Tolmar International Limited, priority 2023, published 2026).

Experiments:
[1] = LA gelation studies of drug solutions (e-beam irradiated, 60 °C with agitation, inversion test); assay type: physicochemical; details: 150 rpm, up to 16 days, leuprolide acetate content
Protocol: Drug solutions were prepared as described above and filled into syringes or glass vials. Syringes were untreated, contained various amounts of silicone, or were plasma coated for lubrication. Samples were irradiated by e-beam irradiation at not less than 25 kGy and stored at accelerated conditions of 60° C. with agitation at 150 rpm for up to 16 days. Samples were inspected periodically to determine if the drug solution remained a solution or had formed a solid/gel by an inversion test. Samples that had “gelled” were transferred to 5° C. for subsequent testing.
The gelation rate for each sample was calculated as Rate=1/(simulated 5° C. age at time of gelation in days). The Arrhenius equation was used to determine the simulated age, assuming standard reaction rate doubling for every 10° C. increase in temperature. […] Data was analyzed using JMP. […] Container type and lubrication were not significant.
Samples were tested for leuprolide content by HPLC. Leuprolide content was then converted to leuprolide acetate by multiplying by 1.078 (based on molecular mass ratios). A marked difference in leuprolide acetate content between the gelled and non-gelled samples was seen, with the tipping point between solution and solid/gelled samples occurring at about 45% LA.

[2] = Solubility of LA in organic solvent; assay type: physicochemical; details: in NMP or DMSO
From the text: To produce the drug/solvent bulk solution comprising the API (LA), the desired amount of the LA was combined with the solvent NMP or DMSO or combination of solvents with or without a co-solvent or other additives, in the indicated amounts (see individual experiments below). The API and solvent were combined in a glass vial or jar. Jars were mixed using the jar mill, Turbula, or shaker at room temperature until homogeneous. LA is soluble in NMP or DMSO and can load higher concentrations (at least 40% w/w). After dissolving the API in the organic solvent, the bulk solution was manually filled into syringes and capped with a tip cap. The syringes used for filling were either 1.2 mL male polypropylene syringes, 1.2 mL male cyclic olefin copolymer syringes or 1 mL male cyclic olefin copolymer syringes. Filled syringes were then packaged in labeled foil pouches with a Syringe A (polymer-solvent solution) and a desiccant pack and the pouches were sealed. After filling the syringes with the formulations, they were terminally sterilized with an external radiation dose of 30 kGy from e-beam processing. After terminal sterilization, the syringes were stored under refrigerated conditions (e.g., 2-8° C.) or accelerated conditions (>25° C. see individual experiments).

tipping point between solution and solid/gelled samples [1]: about 45 % LA
solubility (loading) [2]: at least 40 % w/w
SMILES: CCNC(=O)[C@@H]1CCCN1C(=O)[C@H](CCCNC(=N)N)NC(=O)[C@H](CC(C)C)NC(=O)[C@@H](CC(C)C)NC(=O)[C@H](Cc1ccc(O)cc1)NC(=O)[C@H](CO)NC(=O)[C@H](Cc1c[nH]c2ccccc12)NC(=O)[C@H](Cc1c[nH]cn1)NC(=O)[C@@H]1CCC(=O)N1 [LA, leuprolide acetate]
